Patent EP1000059B1, “TRICYCLIC VASOPRESSIN AGONISTS” (Wyeth, priority 1997, dated 1999)
Where a name gives a salt, the structure may show the parent alone.

What was measured:
Vasopressin V2 [1] = test: Vasopressin V2 agonist effects of test compounds in normal conscious water-loaded rats; assay type: in vivo; conditions: oral dose of 10 mg/kg, urine collected for four hours, Sprague-Dawley (CD) rats; for Changes in Urinary Osmolality: osmolality changes expressed as percent of control; for Urine Volume (% decrease): percent decrease in urine volume vs. control, vehicle 20% DMSO in 2.5% preboiled corn starch
Text: Vasopressin V2 Agonist Effects of Test Compounds in Normal Conscious Water-Loaded Rats:
Male or female normotensive Sprague-Dawley rats (Charles River Laboratories, Inc., Kingston, NY) of 350-500 g body weight were supplied with standard rodent diet (Purina Rodent Lab. Chow 5001) and water ad libitum. On the day of test, rats were placed individually into metabolic cages equipped with devices to separate the feces from the urine and containers for collection of urine. A test compound or a reference agent was given at an oral dose of 10 mg/kg in a volume of 10 ml/kg. The vehicle used was 20% dimethylsulfoxide (DMSO) in 2.5% preboiled corn starch. Thirty minutes after dosing the test compound, rats were gavaged with water at 30 ml/kg into the stomach using a feeding needle. During the test, rats were not provided with water or food. Urine was collected for four hours after dosing of the test compound. At the end of four hours, urine volume was measured. Urinary osmolality was determined using a Fiske One-Ten Osmometer (Fiske Associates, Norwood, MA, 02062) or an Advanced CRYOMATIC Osmometer, Model 3C2 (Advanced Instruments, Norwood, MA). Determinations of Na^+, K^+ and Cl^- ion were carried out using ion specific electrodes in a Beckman SYNCHRON EL-ISE Electrolyte System analyzer. The urinary osmolality should increase proportionally. In the screening test, two rats were used for each compound. If the difference in the urine volume of the two rats was greater than 50%, a third rat was used.

Vasopressin V2 [2] = test: as above; assay type: in vivo; conditions: Sprague-Dawley (CD) rats; for Urine Volume (% decrease): percent decrease in urine volume vs. control, dose 1 mg/kg; for Changes in Urinary Osmolality: percent of control

Compound | Changes in Urinary Osmolality (Vasopressin V2 [1]) | Urine Volume (% decrease) (Vasopressin V2 [1]) | other results
Cc1ccn(-c2ccc(C(=O)N3Cc4cccnc4Nc4ccccc43)c(Cl)c2)n1 [Example 1, [2-Chloro-4-(3-methyl-pyrazol-1-yl)-phenyl]-(5,11-dihydro-pyrido [2,3-b] [1,5]benzodiazepin-6-yl)-methanone] | 272% of control | 80 % decrease | 
Cc1ccnn1-c1ccc(C(=O)N2Cc3cccnc3Nc3ccccc32)c(Cl)c1 [Example 2, [2-Chloro-4-(5-methyl-pyrazol-1-yl)-phenyl] (5,11-dihydro-pyrido[2,3-b] [1,5]benzodiazepin-6-yl)-methanone] | 288% of control | 61 % decrease | 
Cc1ccn(-c2ccc(C(=O)N3Cc4cccnc4Nc4ccccc43)c(Br)c2)n1 [Example 3, [2-Bromo-4-(3-methyl-pyrazol-1-yl)-phenyl]-(5,11-dihydro-pyrido[2,3-b] [1,5]benzodiazepin-6-yl)-methanone] | 346% of control | 85 % decrease | 
Cc1ccn(-c2ccc(C(=O)N3Cc4cccnc4Nc4ccccc43)c(C(F)(F)F)c2)n1 [Example 4, (5,11-Dihydro-pyrido[2,3-b][1,5]benzodiazepin-6-yl)-[4-(3-methyl-pyrazol-1-yl)-2-trifluoromethyl-phenyl]-methanone] | 339% of control | 87 % decrease | 
Cc1ccnn1-c1ccc(C(=O)N2Cc3cccnc3Nc3ccccc32)c(C(F)(F)F)c1 [Example 6, (5,11-Dihydro-pyrido[2,3-b][1,5]benzodiazepin-10-yl)-[4-(5-methyl-pyrazol-1-yl)-2-trifluoromethyl-phenyl]-methanone solvate with 0.09 dichloromethane and 0.13 ethyl acetate] | 103% of control | 25 % decrease | 
O=C(c1ccc(-n2ccc(C(F)(F)F)n2)cc1C(F)(F)F)N1Cc2cccnc2Nc2ccccc21 [Example 7, (5,11-Dihydro-pyrido[2,3-b][1,5]benzodiazepin-6-yl)-[2-trifluoromethyl-4-(3-trifluoromethyl-pyrazol-1-yl)-phenyl]-methanone] | 283% of control | 69 % decrease | 
Cc1ccn(-c2ccc(C(=O)N3Cc4cccnc4N(C)c4ccccc43)c(C(F)(F)F)c2)n1 [Example 8, (5-Methyl-5,11-dihydro-pyrido[2,3-b][1,5]benzodiazepin-10-yl)-[4-(3-methyl-pyrazol-1-yl)-2-trifluoromethyl-phenyl]methanone] | 298% of control | 72 % decrease | 
Cc1ccn(-c2ccc(C(=O)N3Cc4cccnc4Nc4ccccc43)c(F)c2)n1 [Example 9, (5,11-Dihydro-pyrido[2,3-b][1,5]benzodiazepin-10-yl)-[2-fluoro-4-(3-methyl-pyrazol-1-yl)-phenyl]-methanone 0.19 hydrate] | 372% of control | 59 % decrease | 
Cc1ccn(-c2cc(F)ccc2C(=O)N2Cc3cccnc3Nc3ccccc32)n1 [Example 10, (5,11-Dihydro-pyrido[2,3-b][1,5]benzodiazepin-10-yl)-[4-fluoro-2-(3-methyl-pyrazol-1-yl)-phenyl]-methanone solvate with 0.20 ethanol] | 276% of control | 63 % decrease | 
Cc1ccn(-c2ccc(C(=O)N3Cc4cccnc4N(C)c4ccccc43)c(Cl)c2)n1 [Example 11, [2-Chloro-4-(3-methyl-pyrazol-1-yl)-phenyl]-(5-methyl-5,11-dihydro-pyrido[2,3-b][1,5]benzodiazepin-10-yl)-methanone] | 375% of control | 71 % decrease | 
Cc1ccn(-c2ccc(C)c(C(=O)N3Cc4cccnc4Nc4ccccc43)c2)n1 [Example 12, (5,11-Dihydro-pyrido[2,3-b][1,5]benzodiazepin-10-yl)-[2-methyl-5-(3-methyl-pyrazol-1-yl)-phenyl]-methanone] | 101% of control | -2 % decrease | 
CC(C)(C)c1ccn(-c2ccc(C(=O)N3Cc4cccnc4Nc4ccccc43)c(C(F)(F)F)c2)n1 [Example 13, [4-(3-tert-Butyl-pyrazol-1-yl)-2-trifluoromethyl-phenyl]-(5,11-dihydro-pyrido[2,3-b][1,5]benzodiazepin-10-yl)-methanone] | 106% of control | 6 % decrease | 
Cc1ccn(-c2ccc(C(=O)N3Cc4cccnc4Nc4ccccc43)c(C(F)(F)F)c2)n1 [Example 14, (5,11-Dihydro-pyrido[2,3-b][1,5]benzodiazepin-6-yl)-[4-(3-methyl-pyrazol-1-yl)-2-trifluoromethyl-phenyl]-methanone 1:1 salt with methanesulfonic acid solvate with 0.15 hexane] |  |  | Urine Volume (% decrease) (Vasopressin V2 [2]): 83 (1 mg/kg) % decrease; Changes in Urinary Osmolality (Vasopressin V2 [2]; same row's urine volume cell prints 1 mg/kg (footnote says 10 mg/kg)): 321% of control
Cc1ccn(-c2ccc(C(=O)N3Cc4cccnc4Nc4ccccc43)c(C(F)(F)F)c2)n1 [Example 15, (5,11-Dihydro-pyrido[2,3-b][1,5]benzodiazepin-6-yl)-[4-(3-methyl-pyrazol-1-yl)-2-trifluoromethyl-phenyl]-methanone 1:1 salt with hydrochloric acid 0.10 dichloromethane solvate] |  |  | Urine Volume (% decrease) (Vasopressin V2 [2]; starch only): 98 (1 mg/kg) starch only % decrease; Changes in Urinary Osmolality (Vasopressin V2 [2]): 1363% of control
Cc1ccn(-c2ccc(C(=O)N3Cc4cccnc4Oc4ccccc43)c(Cl)c2)n1 [Example 16, [2-Chloro-4-(3-methyl-pyrazol-1-yl)-phenyl]-(11H-5-oxa-4,10-diazadibenzo[a,d]cyclohepten-10-yl)-methanone] | 142% of control | 41 % decrease | 
O=C(c1ccc(-n2ccc(C(F)(F)F)n2)cc1Cl)N1Cc2cccnc2Nc2ccccc21 [Example 17, [2-Chloro-4-(3-trifluoromethyl-pyrazol-1-yl)-phenyl]-(5,11-dihydro-pyrido[2,3-b][1,5]benzodiazepin-6-yl)-methanone] | 262% of control | 72 % decrease | 
Cn1ccc(-c2ccc(C(=O)N3Cc4cccnc4Nc4ccccc43)c(Cl)c2)n1 [Example 18, [2-Chloro-4-(1-methyl-1-H-pyrazol-3-yl)-phenyl]-(5,11-dihydro-pyrido[2,3-b][1,5]benzodiazepin-10-yl)-methanone] | 234% of control | 76 % decrease | 
CN1c2ccccc2N(C(=O)c2ccc(-c3ccn(C)n3)cc2Cl)Cc2cccnc21 [Example 20, [2-Chloro-4-(1-methyl-1H-pyrazol-3-yl)-phenyl]-(5-methyl-5,11-dihydro-pyrido[2,3-b][1,5]benzodiazepin-10-yl)-methanone] | 89% of control | 10 % decrease | 
Cc1nc(-c2ccc(C(=O)N3Cc4cccnc4Nc4ccccc43)c(Cl)c2)n[nH]1 [Example 24, [2-Chloro-4-(5-methyl-1H-[1,2,4]triazol-3-yl)-phenyl]-(5,11-dihydro-pyrido[2,3-b][1,5]benzodiazepin-6-yl)-methanone] | 615% of control | 86 % decrease | 
